Source: patent US20130338092A1, “COMPOUNDS AND METHODS FOR TARGETING LEUKEMIC STEM CELLS” (The Broad Institute, Inc., priority 2011, published 2013)
Entries after “also recorded” stand apart in the source; their conditions may differ.

Columns and labels:
Assay type in all cases: cell-based, murine
[1] = system: leukemia cells on OP9 cells; assay: Coculture pulse treatment experiment; conditions: 24 hours at Day 1 or Day 4 post LSC plating
Description: 13,500 GFP+ OP9 cells were plated onto gelatin coated, 96 well black, clear bottom plates (3904, Corning). 24 hours later, 2,000 sorted leukemia cells were plated onto the monolayer. Compounds (5 μM) were added either 1 (early pulse) or 4 (late pulse) days later at the same 5 μM working concentration of main coculture screen. In both cases, compounds were removed after 24 hours of treatment, the wells were washed, and fresh media without compound was added. The plates were imaged and analyzed 6 days after leukemia cell plating. The viability of the stroma was assessed using stromal monolayers grown alone and treated in parallel, with the same readout described in the stromal toxicity screen above.

[2] = system: leukemic cobblestoning on pretreated OP9 stromal cells; assay: Stromal pretreatment screen on OP9 stroma; conditions: compound on OP9 stroma for 3 days, washed before LSC plating
Description: OP9 cells were plated as in the primary screen. 24 hours later compounds were added to the stromal cultures and the plates were incubated for three days. […] As before, the plates were imaged after 6 days of coculture, and the level of cobblestoning was quantified. Any inhibition of cobblestoning observed under these modified assay conditions would presumably be due to the activity of the compound on the niche, and would allow the analysis of cell non-cell-autonomous mechanisms of leukemia growth inhibition.

HSPCs = assay: Stromal pretreatment of primary MSC stroma, triple coculture, HSPCs; conditions: stroma pretreated three days, LSCs and HSPCs comingled
Description: In the context of primary MSC stroma (uncolored), both HSPCs (from actin-GFP mice (000329, Jackson Lab)) and LSC (dsRed+) populations were comingled together in a ratio of 2:1 within the same 384format wells. As in the stromal pretreatment screen with OP9 stroma, BRD7116 was added for three days to the stroma prior to the addition of the hematopoietic populations. 5 days after compound addition, wells were imaged in the red and green channels and total cells were counted using MetaXpress software from MDC.
This experiment was also performed in the context of primary MSC stroma. Both HSPCs and LSC populations were comingled together in the same wells, as a “triple” coculture.

SMILES	leukemia cells at Day 6 endpoint after 24 hour pulse [1]	leukemia cells at Day 6 endpoint after 24 hour pulse ([1]; listed as lovastatin)	leukemic cobblestoning after stromal pretreatment [2]	numbers of comingled HSPCs on pretreated MSC stroma (HSPCs)
CCC(C)C(=O)OC1CC(C)C=C2C=CC(C)C(CCC(O)CC(O)CC(=O)O)C21 (stereo not shown) [Lovastatic acid]	strong inhibition of leukemia cells	near-complete loss of leukemia cells		
CC1(C)C(C(=O)Nc2ccc(S(=O)(=O)c3ccc(NC(=O)C4C(C)(C)C4(C)C)cc3)cc2)C1(C)C [BRD7116]			decreased leukemic cobblestoning; also recorded: partially recapitulated the leukemia cobblestone inhibition	a decrease in the numbers of comingled HSPCs was not observed
